# Test results reported in patent US20240398989A1, “METHODS AND COMPOSITIONS FOR DIAGNOSIS AND TREATMENT OF METABOLIC DISORDERS” (The Broad Institute, Inc., priority 2021, published 2024).
# Test system: primary human hepatocytes (PHH)
# Assay: LipocyteProfiler of drug-treated primary human hepatocytes
# Format: cell-based
# Conditions: for appearance of the cytoskeleton, Golgi and plasma membrane (AGP Texture_AngularSecondMoment): 5 mM metformin for 24h vs control, p=9.96e-08
# Method: Primary human hepatocytes (PHH) were purchased from BioIVT. Donor lot YNZ was used in this study. PHH were thawed and immediately resuspended in CP media (BioIVT) supplemented with torpedo antibiotic (BioIVT). Cell count and viability were assessed by trypan blue exclusion test prior to plating. […] Four hours after plating, media was replaced with fresh CP media. After 24 h, media was replaced with fresh CP media or CP media containing oleic acid (0.3 mM) or metformin (5 mM). Hepatocytes were incubated for an additional 24 h prior to processing. Human primary AMSCs and PHH were plated in 96-well CellCarrier plates (Perkinelmer #6005550). […] Primary human hepatocytes were stained after 48 h in culture, and 24h following treatment with oleic acid or metformin. On the respective day of the assay, cell culture media was removed and replaced by 0.5 μM Mitotracker staining solution (1 mM MitoTracker Deep Red stock (Invitrogen #M22426) diluted in culture media) to each well followed by 30 minutes incubation at 37° C.' protected from light. […] PFA was removed and cells were washed once with Hank's Balanced Salt Solution (1×), HBSS (Gibco #14025076). […] Finally, staining solution was removed and cells were washed three times with HBSS. Cells were imaged using a Opera Phenix High content screening system. […] Prior to processing, flat field illumination correction was performed using functions generated from the median intensity across each plate. Nuclei were identified using the DAPI stain and then expanded to identify whole cells using the Phalloidin/WGA and BODIPY stains. Regions of cytoplasm were then determined by removing the Nuclei from the Cell segmentations. Speckles of BODIPY staining were enhanced to assist in detection of small and large individual Lipid objects. For each object set measurements were collected representing size, shape, intensity, granularity, texture, colocalization and distance to neighbouring objects. After LipocyteProfiler (LP) feature extraction data was filtered by applying automated and manual quality control steps. […] Second, every field was assessed visually and fields that were corrupted by experimental induced technical artifacts were removed. Furthermore, blocklisted features (Way, Gregory (2019): Blocklist Features-Cell Profiler. figshare. […] After filtering data were normalised per plate using a robust scaling approach (Pedregosa et al. 2011) that subtracts the median from each variable and divides it by the interquartile range. Individual wells were aggregated for downstream analysis by cell depot and day of differentiation.
# [1] = PHH metformin treatment (5 mM, 24h), t-test
compound,measurement,setting,value
CN(C)C(=N)N=C(N)N [metformin],Nuclei_Intensity_IntegratedIntensityEdge_AGP t-statistics,[1],−8.2E+00
same,Nuclei_Intensity_IntegratedIntensityEdge_DNA t-statistics,[1],−1.8E+01
same,Nuclei_Intensity_IntegratedIntensityEdge_Mito t-statistics,[1],5.3E+00
same,Nuclei_Intensity_IntegratedIntensity_DNA t-statistics,[1],−1.3E+01
same,Nuclei_Intensity_IntegratedIntensity_Lipid t-statistics,[1],−5.7E+00
same,Nuclei_Intensity_IntegratedIntensity_Mito t-statistics,[1],7.3E+00
same,Nuclei_Intensity_LowerQuartileIntensity_AGP t-statistics,[1],−1.4E+01
same,Nuclei_Intensity_LowerQuartileIntensity_DNA t-statistics,[1],−1.9E+01
same,Nuclei_Intensity_LowerQuartileIntensity_Lipid t-statistics,[1],−5.4E+00
same,Nuclei_Intensity_LowerQuartileIntensity_Mito t-statistics,[1],7.7E+00
same,Nuclei_Intensity_MADIntensity_AGP t-statistics,[1],−2.2E+01
same,Nuclei_Intensity_MADIntensity_DNA t-statistics,[1],4.7E+00
same,Nuclei_Intensity_MADIntensity_Mito t-statistics,[1],1.2E+01
same,Nuclei_Intensity_MassDisplacement_AGP t-statistics,[1],1.9E+01
same,Nuclei_Intensity_MassDisplacement_DNA t-statistics,[1],6.2E+01
same,Nuclei_Intensity_MassDisplacement_Lipid t-statistics,[1],2.6E+01
same,Nuclei_Intensity_MassDisplacement_Mito t-statistics,[1],1.2E+01
same,Nuclei_Intensity_MaxIntensityEdge_AGP t-statistics,[1],−8.0E+00
same,Nuclei_Intensity_MaxIntensityEdge_DNA t-statistics,[1],−1.3E+01
same,Nuclei_Intensity_MaxIntensityEdge_Mito t-statistics,[1],3.3E+00
same,Nuclei_Intensity_MaxIntensity_AGP t-statistics,[1],−1.6E+01
same,Nuclei_Intensity_MaxIntensity_Mito t-statistics,[1],3.5E+00
same,Nuclei_Intensity_MeanIntensityEdge_AGP t-statistics,[1],−8.2E+00
same,Nuclei_Intensity_MeanIntensityEdge_DNA t-statistics,[1],−1.6E+01
same,Nuclei_Intensity_MeanIntensityEdge_Mito t-statistics,[1],5.2E+00
same,Nuclei_Intensity_MeanIntensity_AGP t-statistics,[1],−1.6E+01
same,Nuclei_Intensity_MeanIntensity_DNA t-statistics,[1],−9.5E+00
same,Nuclei_Intensity_MeanIntensity_Lipid t-statistics,[1],−4.6E+00
same,Nuclei_Intensity_MeanIntensity_Mito t-statistics,[1],7.8E+00
same,Nuclei_Intensity_MedianIntensity_AGP t-statistics,[1],−1.7E+01
same,Nuclei_Intensity_MedianIntensity_DNA t-statistics,[1],−1.3E+01
same,Nuclei_Intensity_MedianIntensity_Lipid t-statistics,[1],−4.5E+00
same,Nuclei_Intensity_MedianIntensity_Mito t-statistics,[1],8.9E+00
same,Nuclei_Intensity_MinIntensityEdge_AGP t-statistics,[1],−7.5E+00
same,Nuclei_Intensity_MinIntensityEdge_DNA t-statistics,[1],−1.6E+01
same,Nuclei_Intensity_MinIntensityEdge_Lipid t-statistics,[1],−8.5E+00
same,Nuclei_Intensity_MinIntensityEdge_Mito t-statistics,[1],3.0E+00
same,Nuclei_Intensity_MinIntensity_AGP t-statistics,[1],−7.8E+00
same,Nuclei_Intensity_MinIntensity_DNA t-statistics,[1],−1.6E+01
same,Nuclei_Intensity_MinIntensity_Lipid t-statistics,[1],−8.6E+00
same,Nuclei_Intensity_MinIntensity_Mito t-statistics,[1],4.5E+00
same,Nuclei_Intensity_StdIntensityEdge_AGP t-statistics,[1],−7.5E+00
same,Nuclei_Intensity_StdIntensityEdge_DNA t-statistics,[1],−1.0E+01
same,Nuclei_Intensity_StdIntensityEdge_Lipid t-statistics,[1],6.3E+00
same,Nuclei_Intensity_StdIntensityEdge_Mito t-statistics,[1],5.2E+00
same,Nuclei_Intensity_StdIntensity_AGP t-statistics,[1],−1.8E+01
same,Nuclei_Intensity_StdIntensity_DNA t-statistics,[1],3.5E+00
same,Nuclei_Intensity_StdIntensity_Mito t-statistics,[1],6.1E+00
same,Nuclei_Intensity_UpperQuartileIntensity_AGP t-statistics,[1],−1.8E+01
same,Nuclei_Intensity_UpperQuartileIntensity_DNA t-statistics,[1],−5.7E+00
same,Nuclei_Intensity_UpperQuartileIntensity_Lipid t-statistics,[1],−4.4E+00
same,Nuclei_Intensity_UpperQuartileIntensity_Mito t-statistics,[1],8.5E+00
same,Nuclei_Location_CenterMassIntensity_Y_AGP t-statistics,[1],4.1E+00
same,Nuclei_Location_CenterMassIntensity_Y_DNA t-statistics,[1],4.2E+00
same,Nuclei_Location_CenterMassIntensity_Y_Lipid t-statistics,[1],4.1E+00
same,Nuclei_Location_CenterMassIntensity_Y_Mito t-statistics,[1],4.2E+00
same,Nuclei_Location_Center_Y t-statistics,[1],4.2E+00
same,Nuclei_Location_MaxIntensity_Y_AGP t-statistics,[1],4.1E+00
same,Nuclei_Location_MaxIntensity_Y_DNA t-statistics,[1],4.2E+00
same,Nuclei_Location_MaxIntensity_Y_Lipid t-statistics,[1],4.1E+00
same,Nuclei_Location_MaxIntensity_Y_Mito t-statistics,[1],4.5E+00
same,Nuclei_Neighbors_AngleBetweenNeighbors_2 t-statistics,[1],−2.2E+01
same,Nuclei_Neighbors_FirstClosestDistance_2 t-statistics,[1],−3.5E+00
same,Nuclei_Neighbors_FirstClosestObjectNumber_2 t-statistics,[1],−1.2E+01
same,Nuclei_Neighbors_NumberOfNeighbors_2 t-statistics,[1],1.9E+01
same,Nuclei_Neighbors_PercentTouching_2 t-statistics,[1],2.0E+01
same,Nuclei_Neighbors_SecondClosestDistance_2 t-statistics,[1],4.5E+00
same,Nuclei_Neighbors_SecondClosestObjectNumber_2 t-statistics,[1],−1.2E+01
same,Nuclei_Number_Object_Number t-statistics,[1],−1.2E+01
same,Nuclei_Radial Distribution_MeanFrac_Mito_3of4 t-statistics,[1],2.6E+01
same,Nuclei_RadialDistribution_FracAtD_AGP_3of4 t-statistics,[1],−2.7E+01
same,Nuclei_RadialDistribution_FracAtD_DNA_2of4 t-statistics,[1],3.0E+01
same,Nuclei_RadialDistribution_FracAtD_Lipid_1of4 t-statistics,[1],−1.2E+01
same,Nuclei_RadialDistribution_FracAtD_Mito_3of4 t-statistics,[1],2.4E+01
same,Nuclei_RadialDistribution_MeanFrac_AGP_3of4 t-statistics,[1],−2.7E+01
same,Nuclei_RadialDistribution_MeanFrac_DNA_2of4 t-statistics,[1],3.8E+01
same,Nuclei_RadialDistribution_MeanFrac_Lipid_2of4 t-statistics,[1],−7.9E+00
same,Nuclei_RadialDistribution_RadialCV_AGP_3of4 t-statistics,[1],2.5E+01
same,Nuclei_RadialDistribution_RadialCV_DNA_3of4 t-statistics,[1],9.7E+01
same,Nuclei_RadialDistribution_RadialCV_Lipid_3of4 t-statistics,[1],2.2E+01
same,Nuclei_RadialDistribution_RadialCV_Mito_2of4 t-statistics,[1],3.7E+01
same,Nuclei_Texture_AngularSecondMoment_AGP_10_02 t-statistics,[1],1.2E+01
same,Nuclei_Texture_AngularSecondMoment_DNA_20_03 t-statistics,[1],9.4E+00
same,Nuclei_Texture_AngularSecondMoment_Lipid_5_03 t-statistics,[1],4.2E+00
same,Nuclei_Texture_AngularSecondMoment_Mito_5_02 t-statistics,[1],−1.8E+01
same,Nuclei_Texture_Contrast_AGP_10_03 t-statistics,[1],−1.8E+01
same,Nuclei_Texture_Contrast_DNA_5_01 t-statistics,[1],5.8E+00
same,Nuclei_Texture_Contrast_Lipid_20_02 t-statistics,[1],4.3E+00
same,Nuclei_Texture_Contrast_Mito_5_03 t-statistics,[1],6.8E+00
same,Nuclei_Texture_Correlation_AGP_10_03 t-statistics,[1],3.0E+01
same,Nuclei_Texture_Correlation_DNA_10_00 t-statistics,[1],−1.6E+01
same,Nuclei_Texture_Correlation_Lipid_5_03 t-statistics,[1],2.3E+01
same,Nuclei_Texture_Correlation_Mito_5_02 t-statistics,[1],1.5E+01
same,Nuclei_Texture_DifferenceEntropy_AGP_10_00 t-statistics,[1],−2.1E+01
same,Nuclei_Texture_DifferenceEntropy_DNA_10_03 t-statistics,[1],−8.0E+00
same,Nuclei_Texture_DifferenceEntropy_Lipid_20_01 t-statistics,[1],8.2E+00
same,Nuclei_Texture_DifferenceEntropy_Mito_20_00 t-statistics,[1],8.0E+00
same,Nuclei_Texture_DifferenceVariance_AGP_10_00 t-statistics,[1],1.4E+01
same,Nuclei_Texture_DifferenceVariance_DNA_20_03 t-statistics,[1],7.3E+00
same,Nuclei_Texture_DifferenceVariance_Lipid_20_00 t-statistics,[1],5.6E+00
same,Nuclei_Texture_DifferenceVariance_Mito_10_00 t-statistics,[1],−8.1E+00
same,Nuclei_Texture_Entropy_AGP_5_00 t-statistics,[1],−1.7E+01
same,Nuclei_Texture_Entropy_DNA_10_03 t-statistics,[1],−7.7E+00
same,Nuclei_Texture_Entropy_Lipid_20_01 t-statistics,[1],7.3E+00
same,Nuclei_Texture_Entropy_Mito_5_02 t-statistics,[1],1.3E+01
same,Nuclei_Texture_InfoMeas1_AGP_10_03 t-statistics,[1],2.6E+01
same,Nuclei_Texture_InfoMeas1_Lipid_20_03 t-statistics,[1],−8.6E+00
same,Nuclei_Texture_InfoMeas2_DNA_10_03 t-statistics,[1],−1.3E+01
same,Nuclei_Texture_InfoMeas2_Mito_5_01 t-statistics,[1],1.3E+01
same,Nuclei_Texture_InverseDifferenceMoment_AGP_10_00 t-statistics,[1],2.1E+01
same,Nuclei_Texture_InverseDifferenceMoment_DNA_20_03 t-statistics,[1],1.5E+01
same,Nuclei_Texture_InverseDifferenceMoment_Lipid_20_00 t-statistics,[1],7.5E+00
same,Nuclei_Texture_InverseDifferenceMoment_Mito_10_00 t-statistics,[1],−1.4E+01
same,Nuclei_Texture_SumAverage_AGP_10_00 t-statistics,[1],−1.8E+01
same,Nuclei_Texture_SumAverage_DNA_10_01 t-statistics,[1],−1.8E+01
same,Nuclei_Texture_SumAverage_Lipid_10_00 t-statistics,[1],−6.6E+00
same,Nuclei_Texture_SumAverage_Mito_20_00 t-statistics,[1],8.5E+00
same,Nuclei_Texture_SumEntropy_AGP_5_00 t-statistics,[1],−1.9E+01
same,Nuclei_Texture_SumEntropy_DNA_10_03 t-statistics,[1],−7.8E+00
same,Nuclei_Texture_SumEntropy_Lipid_20_01 t-statistics,[1],8.0E+00
same,Nuclei_Texture_SumEntropy_Mito_5_02 t-statistics,[1],1.1E+01
same,Nuclei_Texture_SumVariance_AGP_10_03 t-statistics,[1],−1.7E+01
same,Nuclei_Texture_SumVariance_DNA_5_02 t-statistics,[1],6.2E+00
same,Nuclei_Texture_SumVariance_Lipid_20_01 t-statistics,[1],6.0E+00
same,Nuclei_Texture_SumVariance_Mito_5_02 t-statistics,[1],7.3E+00
same,Nuclei_Texture_Variance_AGP_10_03 t-statistics,[1],−1.8E+01
same,Nuclei_Texture_Variance_DNA_5_00 t-statistics,[1],5.8E+00
same,Nuclei_Texture_Variance_Lipid_20_00 t-statistics,[1],4.7E+00
same,Nuclei_Texture_Variance_Mito_5_02 t-statistics,[1],6.9E+00
same,BODIPY Texture Entropy,"PHH, 5 mM metformin for 24h, p 6.98e-04",difference
same,mitochondrial membrane potential (Mito MeanIntensity),"PHH, 5 mM metformin for 24h, p 0.0104",increased
same,cell size (AreaShape MinorAxislength),"PHH, 5 mM metformin for 24h, p=3.11e-12",smaller
same,cell size (AreaShape Area),"PHH, 5 mM metformin for 24h, p=3.87e-11",smaller
same,lipid droplet number (LargeBODIPYObjects_Count),"PHH, 5 mM metformin for 24h, p=2.37e-07",reduced
same,lipid content (BODIPY MeanIntensity),"PHH, 5 mM metformin for 24h, p=6.11e-06",reduced
same,"mitochondrial fusion (Mito Texture_angularSecondMoment, Mito Texture Entropy, Mito Texture_InfoMeas1)","PHH, 5 mM metformin for 24h, p=7.58e-05, p=6.66e-06, p=2.17e-12",increased
same,"appearance of the cytoskeleton, Golgi and plasma membrane (AGP Texture_AngularSecondMoment)",PHH,less uniform
same,"appearance of the cytoskeleton, Golgi and plasma membrane (AGP Texture_AngularSecondMoment)","PHH, listed as Metformin",reduced cytoskeletal randomness
